According to patent US20060178342A1, “Hyaluronan as a cytotoxic agent, drug pre-sensitizer and chemo-sensitizer in the treatment of disease” (priority 2001, published 2006):
“Also recorded” adds a separate entry of the source.

Columns and labels:
[1] = system: Human LIM1215 colon cancer xenografts; assay: 14-week efficacy study, irinotecan ± HA in colon cancer xenografts; assay type: in vivo, mouse; settings: 13.3, 26.6 or 150 mg/kg HA, IV bolus Day 1 of 14 × q7 D
Text: Human LIM1215 colon cancer xenografts were inoculated into the mammary fat pad of athymic […] nude mice. Mice were randomly distributed into eight treatment groups (8 mice per group).
The treatment regime comprised of injections on Day 1 of a 7-day cycle for duration of fourteen weeks. Primary tumor volume, animal body mass, energy levels and food consumption were monitored three times weekly.
Athymic CBA/WEHI nude female mice (Walter and Eliza Hall Research Institute, Melbourne, Australia), 6 to 8 weeks old, were maintained under specific pathogen-free conditions, with sterilized food and water available ad libitum. Each mouse received one injection containing 1×10^7 cells in 50-100 μl. […]
Any animals with a tumor volume expressed as a percentage of body weight outside 0.25±0.10 (mean±1 SD) were excluded from data analysis. […]
The experimental end-point for each animal occurred either when the animal had to be euthanized due to a high degree of disease progression or when the 14-week study had been completed. The animals were monitored three times weekly and the following criteria were established to determine whether an animal had reached the experimental end point: tumour mass is greater than 10% of the animals total body mass; the animal is metabolically stressed (i.e. losing weight); or the animal is immobilized.

[2] = system: MDA-MB-468 human breast carcinoma xenografts; assay: 6-week efficacy study of HA ± 5-FU in nude mouse xenografts; assay type: in vivo
Method: From the results in Example 2 the carcinoma cell line MDA-MB-468 was selected as the cancer cell inoculant for the generation of any nude mouse human tumour xenografts. Cells were routinely grown and subcultured as a previously described in Example 2. For injection into mice, cells were grown to 100% confluency, trypsinised in 0.025% trypsin/0.01% EDTA solution, washed twice by centrifugation in a Beckman TJ-6 bench centrifuge at 400 gav for 10 min, counted using a Model-ZM Coulter counter and resuspended in serum-free Leibovitz L-15 medium at 1×10^8 cells/ml. […]
Individual injections of 5-FU were prepared according to individual mouse masses, with the aim of delivering 30 mg/kg 5-FU in 50 μl (equivalent to human therapeutic dose of 10.5 mg/kg for a mean body weight of 60 kg; Inaba et al, 1988). […] With this quantity of HA injected into the body, saturation kinetics would be observed for the period of the experimentation (Fraser et al, 1983). […]
Animals were weighed and tumour volumes measured on the day of treatment application for long term study. In the 6-week study animals were weighed and tumour volumes measured on a daily basis. […]
Tumour volume was monitored on a daily or weekly basis by caliper measurements and tumour volume calculated as previously described.

hyaluronan [HA] was tested, and the “disease course with HA alone” value [1] was “progressive disease”, the “non-lymphoid metastasis (new tumours near primary tumour)” value ([2]; 6-week study) was “significant reduction in non-lymphoid metastasis” and the “tumour mass at the end of the 6 week study, compared with other groups” value ([2]; iv 12.5 mg/kg HA and/or 30 mg/kg 5-FU, 6 x 7 day cycles) was “significantly decreased the primary tumour mass; also recorded: reducing the primary tumour mass in comparison to the saline control”.
